Source: ChEMBL document CHEMBL3351289, “4-Substituted quinazoline derivatives as novel EphA2 receptor tyrosine kinase inhibitors” (Bioorg Med Chem Lett, 2014)

Assays:
[1] = target: T1, Ephrin type-A receptor 2 (Homo sapiens, UniProt P29317); assay: Inhibition of EphA2 (unknown origin) at 10 uM pre-incubated with enzyme for 10 mins before adding peptide substrate and ATP using TK-substrate-biotin and SEB by time-resolved fluorescence resonance energy transfer assay
[2] = target: Platelet-derived growth factor receptor alpha (Homo sapiens) (UniProt P16234); assay: Inhibition of PDGFRalpha (unknown origin) at 1 uM
[3] = target: Mitogen-activated protein kinase 11 (Homo sapiens) (UniProt Q15759); assay: Inhibition of p38beta (unknown origin) at 1 uM
[4] = target: T1, Ephrin type-A receptor 2; assay: Inhibition of EphA2 (unknown origin) expressed in […] cells assessed as reduction in wound closure after 72 hrs by phase contrast microscopy based would healing assay; assay type: cell-based
[5] = target: Mitogen-activated protein kinase 10 (Homo sapiens) (UniProt P53779); assay: Inhibition of JNK3 (unknown origin) at 1 uM
[6] = target: Epidermal growth factor receptor (Homo sapiens) (UniProt P00533); assay: Inhibition of EGFR (unknown origin) at 1 uM
Chain of Epidermal growth factor receptor (Homo sapiens) (P00533 whole entry): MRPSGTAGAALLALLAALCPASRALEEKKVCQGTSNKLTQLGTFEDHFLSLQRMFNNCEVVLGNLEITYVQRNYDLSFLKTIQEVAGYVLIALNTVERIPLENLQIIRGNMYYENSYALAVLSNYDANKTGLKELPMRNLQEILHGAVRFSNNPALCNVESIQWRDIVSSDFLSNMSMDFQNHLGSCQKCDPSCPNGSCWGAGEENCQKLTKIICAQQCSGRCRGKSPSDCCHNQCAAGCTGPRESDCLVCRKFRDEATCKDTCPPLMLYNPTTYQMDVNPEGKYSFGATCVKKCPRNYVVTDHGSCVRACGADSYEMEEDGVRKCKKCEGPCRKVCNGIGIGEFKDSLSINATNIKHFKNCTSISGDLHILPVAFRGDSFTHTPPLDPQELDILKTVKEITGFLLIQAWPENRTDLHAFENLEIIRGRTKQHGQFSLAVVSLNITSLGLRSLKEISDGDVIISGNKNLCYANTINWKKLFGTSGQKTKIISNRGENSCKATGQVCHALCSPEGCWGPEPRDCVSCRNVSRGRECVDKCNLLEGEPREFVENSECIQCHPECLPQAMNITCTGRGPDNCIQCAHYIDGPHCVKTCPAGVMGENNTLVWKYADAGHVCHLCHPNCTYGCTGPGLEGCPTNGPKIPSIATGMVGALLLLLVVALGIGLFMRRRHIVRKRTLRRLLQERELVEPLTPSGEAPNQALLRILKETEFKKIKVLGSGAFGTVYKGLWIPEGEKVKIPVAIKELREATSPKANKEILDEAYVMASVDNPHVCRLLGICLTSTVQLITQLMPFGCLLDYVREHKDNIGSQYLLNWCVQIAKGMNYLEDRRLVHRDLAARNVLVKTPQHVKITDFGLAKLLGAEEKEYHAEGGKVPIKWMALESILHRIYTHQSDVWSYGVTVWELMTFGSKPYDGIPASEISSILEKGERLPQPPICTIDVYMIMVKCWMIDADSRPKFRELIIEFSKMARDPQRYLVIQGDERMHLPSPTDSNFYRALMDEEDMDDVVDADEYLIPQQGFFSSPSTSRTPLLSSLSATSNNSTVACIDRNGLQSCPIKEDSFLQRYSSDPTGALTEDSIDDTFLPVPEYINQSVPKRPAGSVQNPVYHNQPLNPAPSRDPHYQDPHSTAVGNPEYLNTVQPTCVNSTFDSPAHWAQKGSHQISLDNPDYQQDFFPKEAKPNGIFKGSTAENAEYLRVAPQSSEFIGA

[7] = target: Mitogen-activated protein kinase 1 (Homo sapiens) (UniProt P28482); assay: Inhibition of ERK2 (unknown origin) at 1 uM
Chain of Mitogen-activated protein kinase 1 (Homo sapiens) (P28482 whole entry): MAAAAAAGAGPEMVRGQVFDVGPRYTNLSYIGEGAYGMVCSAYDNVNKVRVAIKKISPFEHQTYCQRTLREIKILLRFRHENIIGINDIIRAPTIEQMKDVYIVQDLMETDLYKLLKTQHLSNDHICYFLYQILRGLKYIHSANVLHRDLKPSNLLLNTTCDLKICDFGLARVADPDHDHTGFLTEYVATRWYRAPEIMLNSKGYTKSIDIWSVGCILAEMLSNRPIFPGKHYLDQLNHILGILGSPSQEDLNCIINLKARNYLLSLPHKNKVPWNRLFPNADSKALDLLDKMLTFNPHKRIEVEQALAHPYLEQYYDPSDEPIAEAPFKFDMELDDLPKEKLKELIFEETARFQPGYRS

[8] = target: Receptor tyrosine-protein kinase erbB-2 (Homo sapiens) (UniProt P04626); assay: Inhibition of HER2 (unknown origin) at 1 uM
[9] = target: Mitogen-activated protein kinase 8 (Homo sapiens) (UniProt P45983); assay: Inhibition of JNK1 (unknown origin) at 1 uM
Chain of Mitogen-activated protein kinase 8 (Homo sapiens) (P45983 whole entry): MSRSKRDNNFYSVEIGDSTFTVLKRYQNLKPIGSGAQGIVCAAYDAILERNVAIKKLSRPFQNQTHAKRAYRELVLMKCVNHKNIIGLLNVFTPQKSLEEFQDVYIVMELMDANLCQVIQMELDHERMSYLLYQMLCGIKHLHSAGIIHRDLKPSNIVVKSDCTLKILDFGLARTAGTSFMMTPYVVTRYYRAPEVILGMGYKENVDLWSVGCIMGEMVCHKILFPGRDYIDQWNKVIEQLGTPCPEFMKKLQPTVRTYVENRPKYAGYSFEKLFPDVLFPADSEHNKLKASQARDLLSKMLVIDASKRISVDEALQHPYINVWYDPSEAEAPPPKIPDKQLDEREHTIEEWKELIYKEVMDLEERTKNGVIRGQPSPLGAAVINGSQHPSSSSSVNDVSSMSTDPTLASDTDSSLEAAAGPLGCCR

[10] = target: Insulin receptor (Homo sapiens) (UniProt P06213); assay: Inhibition of InsR (unknown origin) at 1 uM
[11] = target: Insulin-like growth factor 1 receptor (Homo sapiens) (UniProt P08069); assay: Inhibition of IGF1R (unknown origin) at 1 uM
[12] = target: Mitogen-activated protein kinase 14 (Homo sapiens) (UniProt Q16539); assay: Inhibition of p38alpha (unknown origin) at 1 uM
[13] = target: T1, Ephrin type-A receptor 2; assay: Inhibition of EphA2 (unknown origin) pre-incubated with enzyme for 10 mins before adding peptide substrate and ATP using TK-substrate-biotin and SEB by time-resolved fluorescence resonance energy transfer assay
[14] = target: Glycogen synthase kinase-3 beta (Homo sapiens) (UniProt P49841); assay: Inhibition of GSK3beta (unknown origin) at 1 uM
Chain of Glycogen synthase kinase-3 beta (Homo sapiens) (P49841 whole entry, looked up): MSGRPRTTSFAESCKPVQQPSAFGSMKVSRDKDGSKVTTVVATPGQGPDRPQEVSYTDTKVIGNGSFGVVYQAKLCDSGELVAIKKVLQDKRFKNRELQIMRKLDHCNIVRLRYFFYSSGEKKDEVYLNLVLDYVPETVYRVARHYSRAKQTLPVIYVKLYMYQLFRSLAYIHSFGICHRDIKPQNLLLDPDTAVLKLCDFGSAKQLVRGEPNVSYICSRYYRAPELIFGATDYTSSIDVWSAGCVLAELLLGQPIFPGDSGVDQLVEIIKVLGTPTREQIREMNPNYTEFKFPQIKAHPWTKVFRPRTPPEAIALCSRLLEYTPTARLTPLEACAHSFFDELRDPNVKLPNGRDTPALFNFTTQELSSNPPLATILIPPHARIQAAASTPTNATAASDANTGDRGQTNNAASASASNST

[15] = target: Vascular endothelial growth factor receptor 2 (Homo sapiens) (UniProt P35968); assay: Inhibition of KDR (unknown origin) at 1 uM
Chain of Vascular endothelial growth factor receptor 2 (Homo sapiens) (P35968 whole entry): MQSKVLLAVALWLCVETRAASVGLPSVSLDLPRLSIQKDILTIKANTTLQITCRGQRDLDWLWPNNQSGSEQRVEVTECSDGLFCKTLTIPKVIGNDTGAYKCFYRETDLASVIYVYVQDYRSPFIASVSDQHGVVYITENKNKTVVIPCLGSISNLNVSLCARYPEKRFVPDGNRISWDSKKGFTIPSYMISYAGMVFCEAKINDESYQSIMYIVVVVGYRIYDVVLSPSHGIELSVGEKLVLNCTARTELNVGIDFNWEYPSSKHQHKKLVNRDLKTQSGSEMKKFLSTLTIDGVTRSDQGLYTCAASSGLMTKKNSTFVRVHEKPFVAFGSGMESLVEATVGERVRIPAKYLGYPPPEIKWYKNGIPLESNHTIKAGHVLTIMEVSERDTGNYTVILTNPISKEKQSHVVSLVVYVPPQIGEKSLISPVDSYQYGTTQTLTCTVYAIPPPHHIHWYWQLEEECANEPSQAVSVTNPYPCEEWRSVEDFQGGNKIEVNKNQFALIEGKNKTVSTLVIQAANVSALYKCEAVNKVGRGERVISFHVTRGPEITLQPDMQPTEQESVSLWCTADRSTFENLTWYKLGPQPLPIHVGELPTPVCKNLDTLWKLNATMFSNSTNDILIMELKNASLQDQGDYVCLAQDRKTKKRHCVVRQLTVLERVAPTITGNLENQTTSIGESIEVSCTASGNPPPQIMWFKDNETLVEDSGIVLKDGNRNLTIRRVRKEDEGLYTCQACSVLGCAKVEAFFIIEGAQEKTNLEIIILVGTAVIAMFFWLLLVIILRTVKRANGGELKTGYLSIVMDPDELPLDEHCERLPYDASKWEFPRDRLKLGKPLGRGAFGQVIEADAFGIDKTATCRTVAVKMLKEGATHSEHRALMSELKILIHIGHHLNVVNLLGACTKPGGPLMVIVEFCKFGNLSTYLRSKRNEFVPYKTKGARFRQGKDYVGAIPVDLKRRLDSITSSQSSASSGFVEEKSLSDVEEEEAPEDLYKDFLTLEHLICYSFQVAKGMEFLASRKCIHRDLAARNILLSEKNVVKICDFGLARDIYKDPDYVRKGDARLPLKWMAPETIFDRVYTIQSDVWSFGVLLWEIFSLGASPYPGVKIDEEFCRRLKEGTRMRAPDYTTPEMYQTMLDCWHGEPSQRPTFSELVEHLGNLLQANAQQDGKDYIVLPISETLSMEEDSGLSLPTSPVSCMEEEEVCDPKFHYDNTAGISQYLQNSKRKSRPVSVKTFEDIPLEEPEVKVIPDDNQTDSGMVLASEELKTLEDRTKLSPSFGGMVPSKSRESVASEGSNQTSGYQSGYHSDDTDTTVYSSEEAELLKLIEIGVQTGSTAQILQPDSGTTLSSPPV

T1 sequence (P29317 whole entry): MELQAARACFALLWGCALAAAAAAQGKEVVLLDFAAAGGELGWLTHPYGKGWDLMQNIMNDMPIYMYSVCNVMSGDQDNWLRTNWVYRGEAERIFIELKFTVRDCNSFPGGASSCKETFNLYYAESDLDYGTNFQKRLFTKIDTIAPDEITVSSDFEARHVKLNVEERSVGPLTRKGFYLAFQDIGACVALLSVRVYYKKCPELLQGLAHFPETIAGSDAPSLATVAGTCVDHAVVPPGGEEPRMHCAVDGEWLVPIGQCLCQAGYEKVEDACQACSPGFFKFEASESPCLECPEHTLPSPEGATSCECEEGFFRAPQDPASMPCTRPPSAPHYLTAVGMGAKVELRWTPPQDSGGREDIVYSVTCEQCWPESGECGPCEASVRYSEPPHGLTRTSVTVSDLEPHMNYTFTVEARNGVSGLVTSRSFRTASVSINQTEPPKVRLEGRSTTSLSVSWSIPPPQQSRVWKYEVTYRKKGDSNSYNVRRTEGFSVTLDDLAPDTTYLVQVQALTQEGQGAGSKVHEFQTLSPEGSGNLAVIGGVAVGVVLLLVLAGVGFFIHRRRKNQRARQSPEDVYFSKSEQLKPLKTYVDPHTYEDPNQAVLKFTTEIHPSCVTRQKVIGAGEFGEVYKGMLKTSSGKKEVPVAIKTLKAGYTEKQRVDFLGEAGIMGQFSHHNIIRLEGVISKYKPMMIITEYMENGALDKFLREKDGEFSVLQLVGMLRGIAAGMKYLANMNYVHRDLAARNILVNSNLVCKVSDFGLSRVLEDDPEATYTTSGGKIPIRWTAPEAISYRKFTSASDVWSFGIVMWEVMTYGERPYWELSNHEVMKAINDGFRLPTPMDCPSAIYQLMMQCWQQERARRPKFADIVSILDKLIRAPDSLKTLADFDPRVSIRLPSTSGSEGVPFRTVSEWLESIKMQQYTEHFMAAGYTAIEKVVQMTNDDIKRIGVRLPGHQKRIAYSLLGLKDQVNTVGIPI

| SMILES | inhibition [1] | inhibition [2] | inhibition [3] | inhibition [4] | inhibition [5] | inhibition [6] | inhibition [7] | inhibition [8] | inhibition [9] | inhibition [10] | inhibition [11] | inhibition [12] | IC50 [13] | inhibition [14] | inhibition [15] |
| --- | --- | --- | --- | --- | --- | --- | --- | --- | --- | --- | --- | --- | --- | --- | --- |
| CCCc1ccc(Nc2ncnc3cc(OCC4CNCCO4)c(OC)cc23)cc1 (stereo not given) | 49% |  |  |  |  |  |  |  |  |  |  |  |  |  |  |
| COc1cc2c(Nc3ccc(Cl)cc3F)ncnc2cc1OCC1CNCCO1 (stereo not given) |  | 17% | 2% | Dose-dependent effect | 0% | 100% | 0% | 22% | 0% | 15% | 7% | 16% | 160 nM | 11% | 76% |
